Values quoted from earlier work, collected in US20090192135A1, “Human Niemann Pick C1-Like 1 Gene (NPC1L1) Polymorphisms and Methods of Use Thereof” (SCHERING CORPORATION, priority 2005, published 2009).

Molecular target: T1, NPC1L1 (Homo sapiens, UniProt Q9UHC9)
T1 sequence (Q9UHC9 22-1359): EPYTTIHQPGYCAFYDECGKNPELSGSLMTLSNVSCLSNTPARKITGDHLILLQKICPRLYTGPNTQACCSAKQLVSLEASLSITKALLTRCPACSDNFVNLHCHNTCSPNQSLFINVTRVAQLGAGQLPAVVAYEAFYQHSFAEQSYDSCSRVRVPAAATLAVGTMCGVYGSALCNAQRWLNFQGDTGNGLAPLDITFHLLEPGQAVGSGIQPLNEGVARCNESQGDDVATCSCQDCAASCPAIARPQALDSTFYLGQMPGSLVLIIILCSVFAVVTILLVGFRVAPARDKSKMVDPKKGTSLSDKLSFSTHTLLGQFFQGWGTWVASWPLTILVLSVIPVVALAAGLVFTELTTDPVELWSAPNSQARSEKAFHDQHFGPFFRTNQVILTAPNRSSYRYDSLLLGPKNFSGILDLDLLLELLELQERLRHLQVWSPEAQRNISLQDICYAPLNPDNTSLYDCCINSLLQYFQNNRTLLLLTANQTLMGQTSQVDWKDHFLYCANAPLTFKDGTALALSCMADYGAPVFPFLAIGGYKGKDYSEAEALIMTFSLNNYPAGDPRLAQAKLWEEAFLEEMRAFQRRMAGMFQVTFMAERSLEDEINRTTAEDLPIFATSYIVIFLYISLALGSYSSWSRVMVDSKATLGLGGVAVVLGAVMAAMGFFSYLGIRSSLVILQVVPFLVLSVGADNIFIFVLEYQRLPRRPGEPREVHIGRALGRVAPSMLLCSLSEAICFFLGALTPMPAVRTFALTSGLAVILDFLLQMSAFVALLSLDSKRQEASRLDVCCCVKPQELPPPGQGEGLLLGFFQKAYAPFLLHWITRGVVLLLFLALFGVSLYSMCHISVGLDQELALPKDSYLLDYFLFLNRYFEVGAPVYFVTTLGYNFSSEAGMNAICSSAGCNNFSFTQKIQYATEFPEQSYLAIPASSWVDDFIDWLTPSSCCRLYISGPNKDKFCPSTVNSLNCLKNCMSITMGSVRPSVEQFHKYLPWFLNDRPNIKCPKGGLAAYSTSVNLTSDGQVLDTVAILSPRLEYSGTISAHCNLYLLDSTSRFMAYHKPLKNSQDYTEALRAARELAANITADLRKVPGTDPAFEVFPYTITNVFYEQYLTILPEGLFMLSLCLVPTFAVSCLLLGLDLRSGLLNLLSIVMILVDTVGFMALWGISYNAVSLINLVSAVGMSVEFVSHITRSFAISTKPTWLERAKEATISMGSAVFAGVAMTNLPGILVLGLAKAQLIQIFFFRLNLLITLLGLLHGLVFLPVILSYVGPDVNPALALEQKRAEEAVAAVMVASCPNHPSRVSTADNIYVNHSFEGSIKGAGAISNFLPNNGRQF
Settings: co-administered with a statin; cited from earlier work

## O=C1[C@H](CC[C@H](O)c2ccc(F)cc2)[C@@H](c2ccc(O)cc2)N1c1ccc(F)cc1 [ezetimibe, 1-(4-fluorophenyl)-3(R)-[3-(4-fluorophenyl)-3(S)-hydroxypropyl]-4(S)-(4-hydroxyphenyl)-2-azetidinone]
  incremental LDL-C reduction attributable to ezetimibe: 14-15%
